Experimental findings from US20220395438A1, “TOOTH WHITENING COMPOSITION” (Universitat Autonoma de Barcelona, priority 2019, published 2022) are described below.

The assay is described as follows: Tooth whitening treatments at 20 minutes according to 2^2 factorial design (colorimetric ΔE). More on the design: species or system bovine. The conditions noted are these: 8 specimens per treatment.

In the case of `O=S([O-])S(=O)(=O)[O-].[Na+].[Na+]` [Comparative 2, sodium metabisulfite], the “increase in the whiteness of the tooth, ΔE ± standard deviation” value (“increase … ΔE ± standard deviation” below) (3 minutes of treatment) is 7.3 ± 1.5; the “increase … ΔE ± standard deviation” value (3 minutes of treatment, listed as MBS) amounted to 7.3; the “increase … ΔE ± standard deviation” value (6 minutes of treatment) was found to be 12.9 ± 0.8; the “increase … ΔE ± standard deviation” value (9 minutes of treatment) was found to be 14.7 ± 1.8; the “increase … ΔE ± standard deviation” value (14 minutes of treatment) is 14.8 ± 1.7; the “increase … ΔE ± standard deviation” value (20 minutes of treatment) is given as 16.2 ± 1.7.
